The values that follow come from paper PMC5762338, “A novel orally available Syk/Src/Jak2 inhibitor, SKLB-850, showed potent anti-tumor activities in B cell lymphoma (BCL) models” (Oncotarget, 2017).

Molecules are shown by their SMILES.

One assay has as its system HBL-1 xenograft. Nature of the assay: HBL-1 xenograft mouse model. Type of assay: in vivo, NOD/SCID mice. The conditions noted are these: HBL-1 model. The protocol:
The in vivo anti-BCL effects of SKLB-850 were investigated in the Ramos and HBL xenograft mouse models with R788 being taken as a positive control. The animals were treated orally once daily for 21 days (Ramos model) or 36 days (HBL-1 model).
All animal studies were conducted according to the guidelines of the Animal Care and Use Committee of Sichuan University (Permit Number: 20121205, Chengdu, Sichuan, China). Ramos and HBL-1 tumor cells were established by subcutaneously injecting 1×10^7 cells (100μL) into the hind flank region of 7–8 week old female NOD/SCID mice (ICR, NOD/SCID). When tumors reached a volume of ∼200 mm^3, mice were randomly divided into different groups (6 per group), and SKLB-850 (40 mg/kg, 20mg/kg) or vehicle (5% DMSO, 25% PEG400, and 70% waters) were given once daily by oral gavage. Tumor growth and body weight were measured every three days or every day during the treatment. Tumor volumes were calculated using the formula as follow: tumor volume (mm^3) = 0.5× length (mm) × width (mm) ^2. Studies were typically terminated when tumors in vehicle treated animals reached an average size of 2,000 mm^3. Solid tumors were removed and processed for immunohistochemical analysis and terminal deoxynucleotidyl transferase-mediated dUTP nick end labeling (TUNEL) assay.

A further assay has as its system HBL-1 cells. The assay is described as follows: Cell cycle analysis by FCM. It is filed as cell-based, Human. Conditions: HBL-1, compared with the control, 18 hours. The protocol: (§1) FCM was again used to examine the influence of SKLB-850 on the tumor cell cycle.
(§2) Figure 2 Cell cycle analysis of Ramos and HBL-1 cells induced by SKLB-850, R788 DMSO or control Tumor cells were treated by vehicle, R788 or indicated concentrations of compounds. After 18 hours, cell were harvested and stained with AnnexinV-FITC and propidium iodide, and then analyzed by FCM. […] (A and C) Cell cycle analysis of Ramos cells. (B and D) Cell cycle analysis of HBL-1 cells. […] Columns, mean; bars, SD.^##P < 0.01, 850 group versus DMSO or blank control group.
(§3) Ramos and HBL-1 cells cultured in 6-well plates were treated with DMSO, R788, SKLB-850 or medium. After 18 hours, cells were harvested and washed with PBS, fixed with 70% ethanol for 30 min, stained with 200 μL PI (50 μg/mL PI with 1 mg/mL RNase I, and 0.1% Triton X-100) for 30 min. Cell cycle was analyzed with a flow cytometer (BD FACSCalibur, BD, USA).

A further assay deals with Ramos cells. The assay is described as follows: Cell cycle analysis by FCM. The conditions noted are these: 18 hours; for percentages of cells in the G2 phase (in words): compared with the control. It is filed as cell-based, Human. The protocol: as §1, §2, §3
Assay [1] deals with B-cell lymphoma samples from BCL patients. Nature of the assay: Apoptosis of B-cell lymphoma samples from BCL patients, FCM. Type of assay: cell-based, Human. The conditions noted are these: BCL patient samples, 24 hours, concentration not given. An excerpt: (§4) The ability of inducing apoptosis of SKLB-850 in tumor tissues was examined by TUNEL. […] We then examined apoptotic tumor cells in B-cell lymphoma samples from BCL patients after SKLB-850 treatment by FCM. As shown in Figure 6C and 6F, SKLB-850 induced cell apoptosis (14.10 ± 4.04%), and R788 had the same effect but relatively weak (7.60 ± 0.52%). To better understand the mechanism of antitumor activities in vivo, Ki67 and CD20 in mouse tumor tissues were detected by immunohischemistry; Ki67 was a marker of proliferation in the diagnosis of tumors and CD20 was highly expressed in B cell lymphomas.
Figure 6 SKLB-850 inhibited tumor growth by inducing apoptosis of tumor tissues from the Ramos model and BCL samples from patients (A and D) TUNEL immunofluorescent staining of tumor tissues from the Ramos model (n-6 mice per group). (B and E) Immunohistochemical staining analyses of Ki67 and CD20 in tumor tissues from the Ramos model. (C and F) Apoptosis of tumor cells from the BCL patients induced by SKLB-850. Tumor tissues from BCL patients were treated with a series of concentrations of SKLB-850 or R788, and stained with AnnexinV-FITC and propidium iodide, then analyzed with a flow cytometer. […]
Human lymph nodes were collected aseptically from B-cell lymphoma patients (n = 4 for both groups, Supplementary Table 1). […] Cell apoptosis was analyzed with a flow cytometer (BD FACS Calibur, BD, USA).

Another assay relates to Ramos tumors. Nature of the assay: In situ TUNEL of tumor tissues from the Ramos model. Type of assay: in vivo, NOD/SCID mice.
Source text: as §4
Cell apoptosis in Ramos tumors was determined by a TUNEL assay following the manufacturer’s instructions (Promega). The number of TUNEL-positive cells was quantified by fluorescence microscopy and the apoptotic index in 6 random fields per group was counted.

Regarding `COc1cc(Nc2ncc(F)c(Nc3ccc4c(n3)N(COP(=O)(O)O)C(=O)C(C)(C)O4)n2)cc(OC)c1OC` [R788, reference compound], the “anti-tumor effect (in words)” value in the assay with HBL-1 xenograft (positive control, orally once daily) is “some anti-tumor effect”. In addition, the “percentages of cells in the G2 phase (in words)” value with HBL-1 cells and in the assay on Ramos cells was “very weak effect” each time. The compound also registered a cell apoptosis in assay [1] of 7.60 ± 0.52%. Besides, in the assay on Ramos tumors, the “apoptosis in tumor tissues (TUNEL)” value is 242.20 ± 20.00 % of control.
Turning to `CN1CCN(c2ccc(Nc3ncc(F)c(Nc4ccc(Cl)cc4C(N)=O)n3)cc2)CC1` [SKLB-850, 5-chloro-2-((5-fluoro-2-((4-(4-methylpiperazin-1-yl)phenyl)amino)pyrimidin-4-yl)amino) benzamide], in the assay on HBL-1 xenograft (20 mg/kg orally once daily for 36 days), the tumor inhibition rate is 80.84% ±4.09%. Besides, the “percentages of cells in the G2 phase (in words)” value with HBL-1 cells and in the assay on Ramos cells was “significantly increased” each time. Also, in the assay on Ramos cells (0.01μg/mL, control 19.64 ± 0.61 %), the “percentage of G2 phase cells” value was 53.90 ± 2.65%. Also, in assay [1], the cell apoptosis is reported as 14.10 ± 4.04%. In addition, the “apoptosis in tumor tissues (TUNEL)” value in the assay on Ramos tumors is on record as 406.00 ± 20.70 % of control.
